Test results published in ChEMBL document CHEMBL5370687 (ACS Med Chem Lett, 2023).

Each compound was assayed against T1, Protein-glutamine gamma-glutamyltransferase (Homo sapiens, UniProt P21980) (assay: Inhibition of human recombinant His6-tagged TG2 expressed in insect cells assessed as reduction in incorporation of dansylcadaverine into N,N-dimethylcasein measured for 30 mins by fluorescence assay).
T1 sequence (P21980 whole entry): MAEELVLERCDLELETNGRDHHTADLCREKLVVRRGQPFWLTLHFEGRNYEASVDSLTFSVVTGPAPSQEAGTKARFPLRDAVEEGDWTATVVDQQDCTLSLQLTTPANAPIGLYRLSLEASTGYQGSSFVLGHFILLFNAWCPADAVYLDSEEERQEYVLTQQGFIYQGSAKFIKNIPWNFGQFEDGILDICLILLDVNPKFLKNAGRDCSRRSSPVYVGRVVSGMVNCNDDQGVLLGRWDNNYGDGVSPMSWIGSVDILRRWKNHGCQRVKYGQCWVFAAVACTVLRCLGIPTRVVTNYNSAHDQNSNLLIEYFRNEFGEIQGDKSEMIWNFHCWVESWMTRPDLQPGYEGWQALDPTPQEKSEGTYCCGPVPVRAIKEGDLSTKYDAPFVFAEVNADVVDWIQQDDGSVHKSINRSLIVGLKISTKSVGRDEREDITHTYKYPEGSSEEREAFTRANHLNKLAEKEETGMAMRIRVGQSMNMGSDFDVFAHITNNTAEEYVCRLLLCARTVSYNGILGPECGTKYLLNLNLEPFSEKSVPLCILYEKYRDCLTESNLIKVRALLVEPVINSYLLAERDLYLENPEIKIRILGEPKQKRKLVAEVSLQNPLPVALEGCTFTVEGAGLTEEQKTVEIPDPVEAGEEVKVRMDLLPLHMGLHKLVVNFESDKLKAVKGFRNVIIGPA
Set-up: species or system Insect cell

| IC50 [nM] | SMILES |
| --- | --- |
| ≤ 25 | CNC(=O)C(=O)CC[C@H](NC(=O)c1cc2ccccc2s1)C(=O)Nc1cccn(CC(=O)NC2C3CC4CC(C3)CC2C4)c1=O (stereo not given in full) |
| ≤ 25 | CNC(=O)C(=O)CC[C@H](NC(=O)c1oc2ccccc2c1Cl)C(=O)Nc1cccn(CC(=O)NC2C3CC4CC(C3)CC2C4)c1=O (stereo not given in full) |
| ≤ 25 | CNC(=O)C(=O)CC[C@H](NC(=O)C1Cc2ccccc2C1)C(=O)Nc1cccn(CC(=O)NC2C3CC4CC(C3)CC2C4)c1=O (stereo not given in full) |
| < 250 | CNC(=O)C(=O)CC[C@H](NC(=O)c1[nH]c2ccccc2c1C)C(=O)Nc1cccn(CC(=O)NC2C3CC4CC(C3)CC2C4)c1=O (stereo not given in full) |
| ≤ 25 | CNC(=O)C(=O)CC[C@H](NC(=O)c1cc2ccccc2o1)C(=O)Nc1cccn(CC(=O)NC2C3CC4CC(C3)CC2C4)c1=O (stereo not given in full) |
| ≤ 25 | CNC(=O)C(=O)CC[C@H](NC(=O)c1cc2c(F)c(F)ccc2[nH]1)C(=O)Nc1cccn(CC(=O)NC2C3CC4CC(C3)CC2C4)c1=O (stereo not given in full) |
| ≤ 25 | CNC(=O)C(=O)CC[C@H](NC(=O)c1cc2c(Br)cccc2o1)C(=O)Nc1cccn(CC(=O)NC2C3CC4CC(C3)CC2C4)c1=O (stereo not given in full) |
| ≤ 25 | CNC(=O)C(=O)CC[C@H](NC(=O)c1cc2cc(Br)ccc2s1)C(=O)Nc1cccn(CC(=O)NC2C3CC4CC(C3)CC2C4)c1=O (stereo not given in full) |
| ≤ 25 | CNC(=O)C(=O)CC[C@H](NC(=O)c1cc2ccccc2[nH]1)C(=O)Nc1cccn(CC(=O)NC2C3CC4CC(C3)CC2C4)c1=O (stereo not given in full) |
| ≤ 25 | CNC(=O)C(=O)CC[C@H](NC(=O)c1cc2cccc(F)c2s1)C(=O)Nc1cccn(CC(=O)NC2C3CC4CC(C3)CC2C4)c1=O (stereo not given in full) |
